Measurements reported in patent US20240108625A1, “CDK4/6 INHIBITORS AS A TREATMENT FOR CLONAL HEMATOPOIESIS” (Washington University, priority 2022, published 2024).
“Also recorded” adds a separate entry of the source.

Test system: HSPCs bearing CH mutations
Assay: Genomic analysis of CH clone expansion (change in VAF) in blood of SCLC patients randomized to carboplatin/etoposide with trilaciclib or placebo
Type: in vivo, human
Method: To evaluate the effect of trilaciclib on the expansion of CH clones in patients receiving chemotherapy, the following experiments were conducted. Blood samples obtained from a randomized, placebo-controlled trial of trilaciclib in SCLC patients receiving fist-line carboplatin and etoposide chemotherapy were sequenced pre- and post-treatment.
Blood samples were obtained from a clinical trial of SCLC patients receiving first-line carboplatin/etoposide combination chemotherapy randomized to concurrently receive the CDK4/6 inhibitor trilaciclib or placebo (FIG. 1). We performed targeted mutational analysis of genomic DNA from peripheral blood before and after five cycles of carboplatin/etoposide (˜5 months) in 59 individuals, 32 of whom received concurrent trilaciclib with each cycle of chemotherapy (FIG. 1, top row) and 27 who received placebo (FIG. 1, middle row). As a comparator group, sequential samples were obtained from 178 individuals from another longitudinal study (FIG. 1, bottom row) selected as cancer-free and matched in age and length of follow-up to the participants in the SCLC clinical trial. All samples were analyzed as described below to measure how the number of HSPCs bearing CH mutations (reflected by the variant allele frequency [VAF]) changed over time in individuals randomized to receive trilaciclib compared to placebo and to untreated healthy adults.
A custom-targeted CH panel was developed using VariantPlex (ArcherDX), an amplicon sequencing method that leverages bi-directional primers and molecular barcodes (MBCs) to enable reliable detection of extremely low VAF variants. The CH panel included exonic regions of the nine CH genes most commonly mutated in solid tumor patients (DNMT3A, TET2, ASXL1, PPM1D, TP53, CHEK2, JAK2, SRSF2, and SF3B1).
In brief, following DNA fragmentation, ligation with a universal MBC adapter was performed, tagging each DNA molecule with a unique molecular index (UMI) and allowing for unidirectional amplification of the sample using gene-specific primers. The resulting libraries were sequenced using a NovaSeq 6000 instrument. The average unique coverage per sample was 20,746×. Using tumor-normal dilution series from six AML patients, we developed a custom CH variant calling pipeline integrating three variant callers (Mutect2, Vardict, LoFreq) with post-calling filtering to remove germ line variants and artifacts. A critical feature of this pipeline is the empiric estimation of variant-specific error rates using a technical panel of normals consisting of 30 blood samples from children18.
The distribution of mutations within genes was characterized by notable enrichments for DDR genes (PPM1D, TP53, CHEK2) relative to DTA genes. For each CH mutation, the change in VAF between the first and second time points was calculated. […]

CN1CCN(c2ccc(Nc3ncc4cc5n(c4n3)C3(CCCCC3)CNC5=O)nc2)CC1 [trilaciclib]
growth suppression of CH clones by gene: TET2 (SCLC patients, carboplatin/etoposide, FIG. 5): largest impact | expansion of CH mutations in the DDR pathway (TP53, CHEK2, PPM1D) following chemotherapy (change in VAF) (SCLC patients, concurrent with five cycles of carboplatin/etoposide (~5 months), relative to placebo group): reduced expansion following chemotherapy; also recorded: lower expansion with chemotherapy | growth of CH clones bearing mutations in epigenetic modifiers DTA (DNMT3A, TET2, ASXL1) (SCLC patients, concurrent with five cycles of carboplatin/etoposide (~5 months), vs placebo): suppressed the growth of CH clones | carboplatin-related clonal hematopoiesis (DDR and DTA) (carboplatin chemotherapy): inhibited carboplatin-related clonal hematopoiesis; also recorded: protects against both DDR and DTA clonal hematopoiesis
